Assay [1] concerns the target T1, ATF2 (Homo sapiens, UniProt P15336).
T1 construct: made in house
T1 sequence (P15336 352-415 limits assumed): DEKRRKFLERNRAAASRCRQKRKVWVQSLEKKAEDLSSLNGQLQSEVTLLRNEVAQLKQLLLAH
Kind of assay: Direct-binding FRET assay. The gist of the method: (§1)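 First, wells held 1 mM TCEP-HCl; next, acceptor protein was serially diluted 2-fold across them; then donor fluorescence was fitted to simulated dimer equilibria to assign heterodimer Kd. Anomalous curves ("AS") were refitted after removing the first five points.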

Assay [2] concerns the target T2, BATF3 (Homo sapiens, UniProt Q9NR55).
T2 construct: made in house
T2 sequence (Q9NR55 35-98 limits assumed): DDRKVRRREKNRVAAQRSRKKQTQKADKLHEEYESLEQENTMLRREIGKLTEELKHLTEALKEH
Nature of the assay: Direct-binding FRET assay. To be noted: mean or single. The gist of the method:
as §1

Assay [3] concerns the target T3, HLF (Homo sapiens, UniProt Q16534).
T3 construct: made in house
T3 sequence (Q16534 225-288 limits assumed): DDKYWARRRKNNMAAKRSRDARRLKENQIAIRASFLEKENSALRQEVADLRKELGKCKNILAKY
Kind of assay: Direct-binding FRET assay. The gist of the method:
as §1

The target in assay [4] is T4, NFIL3 (Homo sapiens, UniProt Q16649).
T4 construct: made in house
T4 sequence (Q16649 73-136 limits assumed): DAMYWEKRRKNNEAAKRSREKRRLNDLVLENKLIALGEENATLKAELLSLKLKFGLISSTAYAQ
Kind of assay: Direct-binding FRET assay. The gist of the method: as §1

The target of assay [5] is ATF2 (human) (UniProt P15336). Nature of the assay: FRET or BRET; direct-binding FRET in 384-well plates; rhodamine-labelled design (acceptor) titrated 0 to 1 uM into 10 nM fluorescein-labelled bZIP (donor); 150 mM KCl, 50 mM potassium phosphate pH 7.4, 0.1% Tween-20, 0.1% BSA; 4 °C. A general note: BRET reads energy transfer from a luciferase to a nearby fluorophore.
Assay [6] addresses ATF4 (human) (UniProt P18848). The assay is described as above.
In assay [7] the target is ATF5 (human) (UniProt Q9Y2D1). The description is as above.
In assay [8] the target is NFE2L1 (Homo sapiens, UniProt Q14494). The description is as above.
The target of assay [9] is ATF4 (human) (UniProt P18848). Kind of assay: FRET or BRET; direct-binding FRET in 384-well plates; rhodamine-labelled design (acceptor) titrated 0 to 1 uM into 10 nM fluorescein-labelled bZIP (donor); 150 mM KCl, 50 mM potassium phosphate pH 7.4, 0.1% Tween-20, 0.1% BSA; 37 °C.
Assay [10] deals with NFE2 (human) (UniProt Q16621). Described as above.
[11] abbreviates: 4°C, C-terminal fluorescein design as donor, TAMRA target titrated, read-out: Kd.
[12] abbreviates: 4°C, C-terminal rhodamine design, mean or single, read-out: Kd.
Where [13] appears, read: 4°C, N-terminal rhodamine design, mean or single, read-out: Kd.
Where [14] appears, read: 23°C, C-terminal fluorescein design as donor, TAMRA target titrated, read-out: Kd.
[15] abbreviates: 23°C, C-terminal rhodamine design, mean or single, read-out: Kd.
[16] abbreviates: 23°C, N-terminal rhodamine design, mean or single, read-out: Kd.
Where [17] appears, read: 37°C, C-terminal fluorescein design as donor, TAMRA target titrated, read-out: Kd.
[18] abbreviates: 37°C, C-terminal rhodamine design, mean or single, read-out: Kd.
The mark [19] stands for this setting: 37°C, N-terminal rhodamine design, mean or single, read-out: Kd.
Where [20] appears, read: 4°C, C-terminal rhodamine design, read-out: Kd.
Where [21] appears, read: 4°C, N-terminal rhodamine design, read-out: Kd.
Setting [22] is: 23°C, C-terminal rhodamine design, read-out: Kd.
[23] abbreviates: 23°C, N-terminal rhodamine design, read-out: Kd.
[24] abbreviates: 37°C, C-terminal rhodamine design, read-out: Kd.
Setting [25] is: 37°C, N-terminal rhodamine design, read-out: Kd.
The mark [26] stands for this setting: 23°C, C-terminal rhodamine design, repeat 1, read-out: Kd.
Where [27] appears, read: 37°C, C-terminal rhodamine design, repeat 1, read-out: Kd.
The mark [28] stands for this setting: 4°C, C-terminal fluorescein design as donor, TAMRA target titrated.
Where [29] appears, read: 4°C, C-terminal rhodamine design, mean or single.
[30] abbreviates: 4°C, N-terminal rhodamine design, mean or single.
Setting [31] is: 23°C, C-terminal fluorescein design as donor, TAMRA target titrated.
The mark [32] stands for this setting: 23°C, C-terminal rhodamine design, mean or single.
The mark [33] stands for this setting: 23°C, N-terminal rhodamine design, mean or single.
Setting [34] is: 37°C, C-terminal fluorescein design as donor, TAMRA target titrated.
Where [35] appears, read: 37°C, N-terminal rhodamine design, mean or single.

Values joined by “and” are separate entries in the source; they are usually repeats but may differ in a detail not shown here. Equal values may be shown once. Read-outs that look alike come from different tables or passages of the source. Where no end group is shown, it is not given here.

The term Kd denotes the concentration at which binding is half-saturated.

ATF5 (human), sequence (Q9Y2D1 whole entry): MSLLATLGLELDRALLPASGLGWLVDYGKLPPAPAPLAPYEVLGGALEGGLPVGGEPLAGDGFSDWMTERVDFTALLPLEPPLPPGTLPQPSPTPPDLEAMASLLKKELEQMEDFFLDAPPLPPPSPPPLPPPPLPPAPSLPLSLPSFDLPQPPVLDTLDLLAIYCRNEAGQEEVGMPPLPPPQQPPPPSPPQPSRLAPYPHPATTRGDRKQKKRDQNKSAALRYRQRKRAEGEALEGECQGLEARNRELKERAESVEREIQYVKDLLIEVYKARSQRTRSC
ATF4 (human), sequence (P18848 whole entry): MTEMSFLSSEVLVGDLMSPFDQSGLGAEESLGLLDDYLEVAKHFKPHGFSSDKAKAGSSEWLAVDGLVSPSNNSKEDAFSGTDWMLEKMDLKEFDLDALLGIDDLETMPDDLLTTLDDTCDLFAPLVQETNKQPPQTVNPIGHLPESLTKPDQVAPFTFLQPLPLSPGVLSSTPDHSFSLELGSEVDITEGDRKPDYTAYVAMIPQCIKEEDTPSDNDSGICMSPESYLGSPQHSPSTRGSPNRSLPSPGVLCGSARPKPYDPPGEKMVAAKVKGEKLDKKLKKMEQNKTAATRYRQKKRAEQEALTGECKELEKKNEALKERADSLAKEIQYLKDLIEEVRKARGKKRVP
ATF2 (human), sequence (P15336 whole entry): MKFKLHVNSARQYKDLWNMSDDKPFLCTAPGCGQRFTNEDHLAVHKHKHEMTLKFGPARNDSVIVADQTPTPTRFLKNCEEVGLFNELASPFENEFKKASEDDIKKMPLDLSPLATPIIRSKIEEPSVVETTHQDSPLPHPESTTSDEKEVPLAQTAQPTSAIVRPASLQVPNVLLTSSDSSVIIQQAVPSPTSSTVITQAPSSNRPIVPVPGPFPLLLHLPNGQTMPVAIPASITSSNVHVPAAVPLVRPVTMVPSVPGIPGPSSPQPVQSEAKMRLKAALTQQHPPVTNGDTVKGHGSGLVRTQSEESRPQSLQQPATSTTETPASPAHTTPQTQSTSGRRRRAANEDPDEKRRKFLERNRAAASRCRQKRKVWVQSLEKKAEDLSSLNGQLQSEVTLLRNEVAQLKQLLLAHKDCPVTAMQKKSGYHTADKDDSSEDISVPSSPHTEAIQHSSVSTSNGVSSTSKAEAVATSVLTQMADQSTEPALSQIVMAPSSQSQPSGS
NFE2 (human), sequence (Q16621 whole entry): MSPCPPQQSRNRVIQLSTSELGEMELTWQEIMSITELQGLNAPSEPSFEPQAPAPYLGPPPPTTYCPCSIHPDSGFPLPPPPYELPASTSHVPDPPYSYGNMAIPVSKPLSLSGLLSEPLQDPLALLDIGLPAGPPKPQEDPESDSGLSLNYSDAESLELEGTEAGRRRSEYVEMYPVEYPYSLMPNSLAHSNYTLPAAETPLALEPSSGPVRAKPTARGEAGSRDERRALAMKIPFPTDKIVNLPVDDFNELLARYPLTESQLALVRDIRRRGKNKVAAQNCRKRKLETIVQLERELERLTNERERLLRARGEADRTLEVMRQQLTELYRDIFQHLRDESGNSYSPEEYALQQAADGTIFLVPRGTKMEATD
NFE2L1, sequence (Q14494 whole entry): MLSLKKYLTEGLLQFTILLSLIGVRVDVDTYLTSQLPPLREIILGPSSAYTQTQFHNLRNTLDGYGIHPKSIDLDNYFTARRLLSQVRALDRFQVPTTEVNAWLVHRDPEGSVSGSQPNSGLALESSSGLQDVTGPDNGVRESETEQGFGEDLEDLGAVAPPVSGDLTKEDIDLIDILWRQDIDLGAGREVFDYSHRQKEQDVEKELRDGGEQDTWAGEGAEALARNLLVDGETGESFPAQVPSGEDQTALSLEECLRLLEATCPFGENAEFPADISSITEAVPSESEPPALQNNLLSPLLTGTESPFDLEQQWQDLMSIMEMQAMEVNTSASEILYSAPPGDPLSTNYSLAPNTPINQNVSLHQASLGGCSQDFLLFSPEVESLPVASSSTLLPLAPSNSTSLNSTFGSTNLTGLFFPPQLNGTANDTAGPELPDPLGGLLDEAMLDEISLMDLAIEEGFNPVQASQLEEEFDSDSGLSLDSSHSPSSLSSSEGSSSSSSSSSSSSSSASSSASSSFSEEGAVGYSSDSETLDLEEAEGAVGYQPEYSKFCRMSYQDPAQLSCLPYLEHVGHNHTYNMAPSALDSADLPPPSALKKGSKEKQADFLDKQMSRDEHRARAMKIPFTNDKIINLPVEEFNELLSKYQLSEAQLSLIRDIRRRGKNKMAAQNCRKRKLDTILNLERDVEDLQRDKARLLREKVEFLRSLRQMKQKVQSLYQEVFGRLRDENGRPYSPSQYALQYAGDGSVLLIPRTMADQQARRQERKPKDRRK

As for “EREAQLENRVAHLKEKNQELKAQNLHLKEALSEAQNRNQELKNDA [XBP1-d1]”, the Kd in [1] (setting [11]), in assay [1] (setting [12]), in [1] (setting [13]), in assay [1] (setting [14]), in [1] (setting [15]) and in assay [1] (setting [16]) was above 1000 nM throughout. The dissociation constant Kd in assay [1] (setting [17]) was above 1000 nM; in assay [1] (setting [18]), above 1000 nM; in [1] (setting [19]) it was above 1000 nM; in assay [2] (setting [20]) it was above 5000 nM; in assay [2] (setting [21]) it was above 1000 nM; in [2] (setting [22]), above 1000 nM. Further, the Kd in assay [2] (setting [23]), in [2] (setting [24]), in assay [2] (setting [25]), in [3] (setting [11]), in assay [3] (setting [12]) and in assay [3] (setting [13]) was above 1000 nM throughout. In addition, the Kd in assay [3] (setting [14]), in [3] (setting [15]), in [3] (setting [16]), in assay [3] (setting [17]), in assay [3] (setting [18]) and in assay [3] (setting [19]) was above 1000 nM throughout. The Kd in [4] (setting [11]), in assay [4] (setting [12]), in assay [4] (setting [13]), in assay [4] (setting [14]), in assay [4] (setting [15]) and in assay [4] (setting [16]) was above 1000 nM in each case. For the same molecule, the dissociation constant (Kd) in [4] (setting [17]), in assay [4] (setting [18]) and in assay [4] (setting [19]) was above 1000 nM in each case.

As to “KRIAYLRQRIAELRNENHVLESRIQRMEKEKDALQQDRDHLEYEL [ATF5-d1]”, the Kd in assay [1] (setting [12]) was above 5000 nM; in assay [1] (setting [15]) it was above 5000 nM; in [1] (setting [16]) it was above 1000 nM; in assay [1] (setting [18]) it was above 5000 nM; in assay [1] (setting [19]), above 1000 nM; in assay [2] (setting [20]) it was 192 nM. The Kd was 52.8 nM in [2] (setting [21]); 791 nM in assay [2] (setting [22]); 315 nM in [2] (setting [23]); above 5000 nM in assay [2] (setting [24]); above 5000 nM in [2] (setting [25]); above 5000 nM in [3] (setting [12]). For the same molecule, the dissociation constant (Kd) in [3] (setting [13]) was above 5000 nM; in assay [3] (setting [15]), above 5000 nM; in assay [3] (setting [16]), above 1000 nM; in assay [3] (setting [18]), above 5000 nM; in assay [3] (setting [19]), above 1000 nM; in assay [4] (setting [12]), above 1000 nM. The Kd in assay [4] (setting [13]), in assay [4] (setting [15]), in assay [4] (setting [16]), in assay [4] (setting [18]) and in [4] (setting [19]) was above 1000 nM in each case.

With “NQIKTLRTRLSKLRKDNLQLEKDIANLERKAKDLRAEKEQLEYEL [ATF4-d1]”, the Kd in assay [1] (setting [11]) was above 5000 nM; in [1] (4°C, C-terminal rhodamine design, repeat 1, read-out: Kd), above 5000 nM; in [1] (setting [13]) it was above 1000 nM; in [1] (setting [14]), above 1000 nM; in [1] (setting [26]) it was above 1000 nM; in [1] (setting [16]), above 1000 nM. Besides, the Kd in assay [1] (setting [17]) was above 5000 nM; in assay [1] (setting [27]) it was above 5000 nM; in assay [1] (setting [19]), above 1000 nM; in assay [2] (setting [20]), above 1000 nM; in assay [2] (setting [21]), above 1000 nM; in assay [2] (setting [22]), above 1000 nM. Also, the Kd was above 1000 nM in [2] (setting [23]); above 1000 nM in assay [2] (setting [24]); above 1000 nM in [2] (setting [25]); above 1000 nM in assay [3] (setting [11]); above 5000 nM in assay [3] (setting [12]); above 1000 nM in assay [3] (setting [13]). Further, the Kd in assay [3] (setting [14]) was above 1000 nM; in [3] (setting [15]), above 1000 nM; in assay [3] (setting [16]), above 1000 nM; in assay [3] (setting [17]), above 1000 nM; in [3] (setting [18]), above 5000 nM; in assay [3] (setting [19]), above 1000 nM. The Kd in assay [4] (setting [11]) is 42.4 nM; in assay [4] (setting [12]) it was 22.8 nM; in assay [4] (setting [13]), above 1000 nM; in assay [4] (setting [14]), above 1000 nM; in assay [4] (setting [26]), above 5000 nM; in assay [4] (23°C, C-terminal rhodamine design, repeat 2, read-out: Kd), above 5000 nM. Further, the Kd in assay [4] (setting [16]) is above 1000 nM; in [4] (setting [17]), above 1000 nM; in assay [4] (setting [18]), above 5000 nM; in assay [4] (setting [27]) it was above 5000 nM; in assay [4] (37°C, C-terminal rhodamine design, repeat 2, read-out: Kd) it was above 5000 nM; in [4] (37°C, C-terminal rhodamine design, repeat 3, read-out: Kd), above 5000 nM. For the same molecule, the Kd in [4] (setting [19]) was above 1000 nM.

On to “SIAATLEKEEANLEKMNKKLAAEIESLLKEKDKLESVLNYHE [JUN-d1]”, for which the Kd was 200 to 1000 nM in assay [1] (Kd, 4°C, N-terminal rhodamine design, mean or single); above 1000 nM in [1] (Kd, 23°C, N-terminal rhodamine design, mean or single); above 1000 nM in assay [1] (Kd, 37°C, N-terminal rhodamine design, mean or single); 362 nM in assay [2] (Kd, 4°C, C-terminal rhodamine design); above 1000 nM in assay [2] (Kd, 4°C, N-terminal rhodamine design); above 5000 nM in [2] (Kd, 23°C, C-terminal rhodamine design). Besides, the Kd in assay [2] (Kd, 23°C, N-terminal rhodamine design) was above 1000 nM; in [2] (Kd, 37°C, C-terminal rhodamine design), above 1000 nM; in assay [2] (Kd, 37°C, N-terminal rhodamine design), above 1000 nM; in assay [3], above 1000 nM; in [3] (setting [28]), above 1000 nM; in assay [3] (setting [29]), above 1000 nM. The Kd in [3] (setting [30]), in assay [3] (setting [31]), in [3] (setting [32]), in assay [3] (setting [33]), in [3] (setting [34]) and in [3] (setting [35]) was above 1000 nM in each case. The Kd in assay [4], in assay [4] (setting [28]), in assay [4] (setting [29]), in assay [4] (setting [30]), in assay [4] (setting [31]) and in assay [4] (setting [32]) was above 1000 nM each time. Besides, the Kd in assay [4] (setting [33]), in assay [4] (setting [34]) and in assay [4] (setting [35]) was above 1000 nM in each case.

B1: ATF4-d1 labeled at the C-terminus (designed binder)
chain: GESKEYKKGSGSNQIKTLRTRLSKLRKDNLQLEKDIANLERKAKDLRAEKEQLEYELGC
modifications: also: C59 label by assay: Rhodamine Red C2-maleimide or fluorescein-5-maleimide
notes: solubility linker after the His6 tag; added to the C-terminus for labeling; one molecule for the rhodamine- and the fluorescein-labelled form; the assay tells which label stood there; also called ATF4-d1-Rhodamine; ATF4-d1-FITC; source: E. coli RP3098, purified (Ni-NTA under denaturing conditions, reverse-phase HPLC)
Regarding B1, the Kd in [5] was 1000 nM; in assay [6] it was 1 nM; in assay [7], above 5000 nM; in assay [8], above 5000 nM; in [9] it was 11.3 nM and 9.9 nM and 6.8 nM; in assay [10], 2920 nM.

B2: ATF5-d1 labeled at the C-terminus (designed binder)
chain: GESKEYKKGSGSKRIAYLRQRIAELRNENHVLESRIQRMEKEKDALQQDRDHLEYELGC(Rhodamine Red C2‑maleimide)
modifications: not fully specified
For the molecule B2, the Kd in assay [5] is above 5000 nM; in assay [6] it was 1 nM; in [7] it was 1.1 nM and 1.2 nM and 1 nM; in assay [8], above 5000 nM; in [9] it was 4.8 nM and 4 nM and 6 nM; in [10], above 5000 nM.

The record behind these values is paper PMC4335062, “Data-Driven Prediction and Design of bZIP Coiled-Coil Interactions” (PLoS Computational Biology, 2015).
